Results reported in article PMC5074247 (Biopharmaceutics & Drug Disposition, 2016).
Where two headings read alike, the source gives them in different places.

Tests used:
[1] = Whole‐body autoradiography of SD rats; assay type: in vivo, Sprague–Dawley rats; settings: 168 h, oral 1 mg/kg, SD rat
[2] = SHRcp model ref 40; cited from earlier work
[3] = assay type: in vivo, Sprague–Dawley rats; settings: all time‐points measured; oral 1 mg/kg [^14C]teneligliptin; SD rats
[4] = Volume of distribution at steady state after intravenous administration to rats; assay type: in vivo; settings: rat, plasma
[5] = Tissue distribution of radioactivity in SD rats; assay type: in vivo, Sprague–Dawley rats; settings: oral 1 mg/kg
[6] = cited from earlier work

For `Cc1cc(N2CCN([C@@H]3CN[C@H](C(=O)N4CCSC4)C3)CC2)n(-c2ccccc2)n1` [Teneligliptin, 3‐[(2S,4S)‐4‐[4‐(3‐methyl‐1‐phenyl‐1H‐pyrazol‐5‐yl)piperazin‐1‐yl]pyrrolidin‐2‐ylcarbonyl] thiazolidine], the radioactivity in autoradiogram ([1]; kidney) was “relatively high level of radioactivity”, the radioactivity in autoradiogram ([1]; liver) was “low level of radioactivity” and the radioactivity in autoradiogram ([1]; other tissues examined) was “negligible radioactivity”. For the same molecule, the “TNF‐α expression in the aorta” value [2] was “decreased”, the endothelial dysfunction [2] was “attenuated” and the “radioactive component in plasma and kidney (HPLC radiochromatogram)” value [3] was “most abundant radioactive component”. The Vd [4] was 8.9 L/kg, the Concentration of radioactivity ([5]; Adrenal, 0.5 h) was 1221.7 ± 289.0 ng eq/ml or g and the Concentration of radioactivity ([5]; Adrenal, 5 h) was 323.7 ± 90.7 ng eq/ml or g. The Concentration of radioactivity ([5]; Adrenal, 12 h) was 177.0 ± 22.7 ng eq/ml or g, the Concentration of radioactivity ([5]; Adrenal, 24 h) was 100.4 ± 8.8 ng eq/ml or g and the Concentration of radioactivity ([5]; Adrenal, 72 h) was 20.5 ± 4.3 (N.C.) ng eq/ml or g. For the same molecule, the Concentration of radioactivity ([5]; Adrenal, 168 h) was 6.5 ± 4.5 (N.C.) ng eq/ml or g, the Concentration of radioactivity ([5]; Aorta, 0.5 h) was 488.7 ± 78.4 ng eq/ml or g and the Concentration of radioactivity ([5]; Aorta, 5 h) was 99.0 ± 46.0 ng eq/ml or g. For the same molecule, the Concentration of radioactivity ([5]; Aorta, 12 h) was 35.7 ± 16.7 ng eq/ml or g, the Concentration of radioactivity ([5]; Aorta, 24 h) was 15.4 ± 5.2 ng eq/ml or g and the Concentration of radioactivity ([5]; Bone, 0.5 h) was 118.7 ± 22.2 ng eq/ml or g. The Concentration of radioactivity ([5]; Bone, 5 h) was 52.3 ± 19.9 ng eq/ml or g, the Concentration of radioactivity ([5]; Bone, 12 h) was 23.8 ± 7.5 ng eq/ml or g and the Concentration of radioactivity ([5]; Epididymis, 0.5 h) was 232.5 ± 61.7 ng eq/ml or g. The Concentration of radioactivity ([5]; Epididymis, 5 h) was 352.5 ± 76.0 ng eq/ml or g, the Concentration of radioactivity ([5]; Epididymis, 12 h) was 259.9 ± 44.4 ng eq/ml or g and the Concentration of radioactivity ([5]; Epididymis, 24 h) was 167.6 ± 35.4 ng eq/ml or g. The Concentration of radioactivity ([5]; Epididymis, 72 h) was 44.9 ± 3.8 (N.C.) ng eq/ml or g, the Concentration of radioactivity ([5]; Epididymis, 168 h) was 11.2 ± 3.3 (N.C.) ng eq/ml or g and the Concentration of radioactivity ([5]; Heart, 0.5 h) was 454.0 ± 85.0 ng eq/ml or g. The Concentration of radioactivity ([5]; Heart, 5 h) was 118.7 ± 34.6 ng eq/ml or g, the Concentration of radioactivity ([5]; Heart, 12 h) was 56.6 ± 8.9 ng eq/ml or g and the Concentration of radioactivity ([5]; Heart, 24 h) was 30.6 ± 2.7 ng eq/ml or g. For the same molecule, the Concentration of radioactivity ([5]; Heart, 72 h) was 6.3 ± 1.1 (N.C.) ng eq/ml or g, the Concentration of radioactivity ([5]; Kidney, 0.5 h) was 4568.2 ± 609.1 ng eq/ml or g and the Concentration of radioactivity ([5]; Kidney, 5 h) was 3292.8 ± 76.8 ng eq/ml or g. For the same molecule, the Concentration of radioactivity ([5]; Kidney, 12 h) was 2872.1 ± 419.4 ng eq/ml or g, the Concentration of radioactivity ([5]; Kidney, 24 h) was 2637.8 ± 410.3 ng eq/ml or g and the Concentration of radioactivity ([5]; Kidney, 72 h) was 1548.5 ± 192.3 (N.C.) ng eq/ml or g. The Concentration of radioactivity ([5]; Kidney, 168 h) was 606.1 ± 203.2 (N.C.) ng eq/ml or g, the Concentration of radioactivity ([5]; Liver, 0.5 h) was 4686.7 ± 932.3 ng eq/ml or g and the Concentration of radioactivity ([5]; Liver, 5 h) was 1753.2 ± 130.4 ng eq/ml or g. The Concentration of radioactivity ([5]; Liver, 12 h) was 814.1 ± 68.7 ng eq/ml or g, the Concentration of radioactivity ([5]; Liver, 24 h) was 389.5 ± 49.5 ng eq/ml or g and the Concentration of radioactivity ([5]; Liver, 72 h) was 250.2 ± 21.8 (N.C.) ng eq/ml or g. The Concentration of radioactivity ([5]; Liver, 168 h) was 92.4 ± 17.2 (N.C.) ng eq/ml or g, the Concentration of radioactivity ([5]; Lung, 0.5 h) was 1938.4 ± 456.7 ng eq/ml or g and the Concentration of radioactivity ([5]; Lung, 5 h) was 714.7 ± 116.7 ng eq/ml or g. The Concentration of radioactivity ([5]; Lung, 12 h) was 500.7 ± 40.2 ng eq/ml or g, the Concentration of radioactivity ([5]; Lung, 24 h) was 323.6 ± 46.7 ng eq/ml or g and the Concentration of radioactivity ([5]; Lung, 72 h) was 71.3 ± 12.9 (N.C.) ng eq/ml or g. The Concentration of radioactivity ([5]; Lung, 168 h) was 16.9 ± 5.9 (N.C.) ng eq/ml or g, the Concentration of radioactivity ([5]; Pancreas, 0.5 h) was 1253.9 ± 341.0 ng eq/ml or g and the Concentration of radioactivity ([5]; Pancreas, 5 h) was 298.9 ± 83.1 ng eq/ml or g. The Concentration of radioactivity ([5]; Pancreas, 12 h) was 107.8 ± 22.6 ng eq/ml or g, the Concentration of radioactivity ([5]; Pancreas, 24 h) was 50.8 ± 1.2 ng eq/ml or g and the Concentration of radioactivity ([5]; Pancreas, 72 h) was 8.3 ± 1.8 (N.C.) ng eq/ml or g. For the same molecule, the Concentration of radioactivity ([5]; Pancreas, 168 h) was 3.4 ± 0.9 (N.C.) ng eq/ml or g, the Concentration of radioactivity ([5]; Prostate, 0.5 h) was 478.6 ± 167.1 ng eq/ml or g and the Concentration of radioactivity ([5]; Prostate, 5 h) was 169.0 ± 53.9 ng eq/ml or g. For the same molecule, the Concentration of radioactivity ([5]; Prostate, 12 h) was 76.7 ± 18.8 ng eq/ml or g, the Concentration of radioactivity ([5]; Prostate, 24 h) was 38.6 ± 3.3 ng eq/ml or g and the Concentration of radioactivity ([5]; Prostate, 72 h) was 6.1 ± 1.3 (N.C.) ng eq/ml or g. For the same molecule, the Concentration of radioactivity ([5]; Prostate, 168 h) was 2.2 ± 0.6 (N.C.) ng eq/ml or g, the Concentration of radioactivity ([5]; Seminal vesicle, 0.5 h) was 329.0 ± 105.4 ng eq/ml or g and the Concentration of radioactivity ([5]; Seminal vesicle, 5 h) was 133.8 ± 57.4 ng eq/ml or g. For the same molecule, the Concentration of radioactivity ([5]; Seminal vesicle, 12 h) was 51.0 ± 6.3 ng eq/ml or g, the Concentration of radioactivity ([5]; Seminal vesicle, 24 h) was 18.7 ± 4.4 ng eq/ml or g and the Concentration of radioactivity ([5]; Seminal vesicle, 72 h) was 1.7 ± 2.0 (N.C.) ng eq/ml or g. For the same molecule, the Concentration of radioactivity ([5]; Skeletal muscle, 0.5 h) was 242.5 ± 66.9 ng eq/ml or g, the Concentration of radioactivity ([5]; Skeletal muscle, 5 h) was 46.7 ± 20.1 ng eq/ml or g and the Concentration of radioactivity ([5]; Skeletal muscle, 12 h) was 16.7 ± 2.4 ng eq/ml or g. The Concentration of radioactivity ([5]; Skeletal muscle, 24 h) was 7.9 ± 1.1 ng eq/ml or g, the Concentration of radioactivity ([5]; Skin, 0.5 h) was 366.3 ± 77.9 ng eq/ml or g and the Concentration of radioactivity ([5]; Skin, 5 h) was 199.1 ± 47.5 ng eq/ml or g. The Concentration of radioactivity ([5]; Skin, 12 h) was 99.2 ± 14.6 ng eq/ml or g, the Concentration of radioactivity ([5]; Skin, 24 h) was 55.2 ± 2.9 ng eq/ml or g and the Concentration of radioactivity ([5]; Skin, 72 h) was 18.9 ± 1.6 (N.C.) ng eq/ml or g. For the same molecule, the Concentration of radioactivity ([5]; Skin, 168 h) was 9.3 ± 3.3 (N.C.) ng eq/ml or g, the Concentration of radioactivity ([5]; Spinal cord, 0.5 h) was 28.2 ± 7.8 ng eq/ml or g and the Concentration of radioactivity ([5]; Spinal cord, 5 h) was 11.4 ± 5.8 ng eq/ml or g. For the same molecule, the Concentration of radioactivity ([5]; Spinal cord, 12 h) was 4.9 ± 2.4 ng eq/ml or g, the Concentration of radioactivity ([5]; Spinal cord, 24 h) was 1.6 ± 1.1 ng eq/ml or g and the Concentration of radioactivity ([5]; Spleen, 0.5 h) was 1377.2 ± 292.1 ng eq/ml or g. For the same molecule, the Concentration of radioactivity ([5]; Spleen, 5 h) was 510.7 ± 68.2 ng eq/ml or g, the Concentration of radioactivity ([5]; Spleen, 12 h) was 312.9 ± 31.8 ng eq/ml or g and the Concentration of radioactivity ([5]; Spleen, 24 h) was 217.7 ± 21.3 ng eq/ml or g. The Concentration of radioactivity ([5]; Spleen, 72 h) was 62.4 ± 7.3 (N.C.) ng eq/ml or g, the Concentration of radioactivity ([5]; Spleen, 168 h) was 17.0 ± 4.3 (N.C.) ng eq/ml or g and the Concentration of radioactivity ([5]; Submaxillary gland, 0.5 h) was 1009.9 ± 265.5 ng eq/ml or g. The Concentration of radioactivity ([5]; Submaxillary gland, 5 h) was 309.9 ± 62.2 ng eq/ml or g, the Concentration of radioactivity ([5]; Submaxillary gland, 12 h) was 123.7 ± 24.6 ng eq/ml or g and the Concentration of radioactivity ([5]; Submaxillary gland, 24 h) was 78.5 ± 12.3 ng eq/ml or g. The Concentration of radioactivity ([5]; Submaxillary gland, 72 h) was 18.0 ± 5.0 (N.C.) ng eq/ml or g, the Concentration of radioactivity ([5]; Submaxillary gland, 168 h) was 6.9 ± 2.5 (N.C.) ng eq/ml or g and the Concentration of radioactivity ([5]; Testis, 0.5 h) was 68.5 ± 21.6 ng eq/ml or g. The Concentration of radioactivity ([5]; Testis, 5 h) was 128.2 ± 41.8 ng eq/ml or g, the Concentration of radioactivity ([5]; Testis, 12 h) was 49.6 ± 10.4 ng eq/ml or g and the Concentration of radioactivity ([5]; Testis, 24 h) was 18.7 ± 2.4 ng eq/ml or g. The Concentration of radioactivity ([5]; Testis, 72 h) was 8.3 ± 10.2 (N.C.) ng eq/ml or g, the Concentration of radioactivity ([5]; Thymus, 0.5 h) was 538.8 ± 138.4 ng eq/ml or g and the Concentration of radioactivity ([5]; Thymus, 5 h) was 298.8 ± 61.8 ng eq/ml or g. The Concentration of radioactivity ([5]; Thymus, 12 h) was 181.8 ± 19.4 ng eq/ml or g, the Concentration of radioactivity ([5]; Thymus, 24 h) was 132.1 ± 3.9 ng eq/ml or g and the Concentration of radioactivity ([5]; Thymus, 72 h) was 37.5 ± 8.1 (N.C.) ng eq/ml or g. For the same molecule, the Concentration of radioactivity ([5]; Thymus, 168 h) was 10.6 ± 3.3 (N.C.) ng eq/ml or g, the Concentration of radioactivity ([5]; Thyroid, 0.5 h) was 826.4 ± 164.2 ng eq/ml or g and the Concentration of radioactivity ([5]; Thyroid, 5 h) was 279.2 ± 83.8 ng eq/ml or g. For the same molecule, the Concentration of radioactivity ([5]; Thyroid, 12 h) was 124.3 ± 25.9 ng eq/ml or g, the Concentration of radioactivity ([5]; Thyroid, 24 h) was 55.2 ± 7.4 ng eq/ml or g and the “time of maximum tissue concentration” value ([5]; large intestine) was 12 h. The “radioactivity concentration as % of the maximum concentration” value ([5]; other tissues, 168 h) was at most 3%, the plasma radioactivity ([5]; plasma, 72 h) was “undetectable” and the “time of maximum tissue concentration” value ([5]; testis, epididymis and cecum) was 5 h. The “exposure versus healthy subjects” value ([6]; patients with hepatic disorders ref 18) was 1.59 fold and the “exposure versus healthy subjects” value ([6]; patients with renal disorders ref 17) was 1.68 fold.
